Data reported in patent US20090175914A1, “Salts or Complexes of Methyl Donors With Phytic Acid or Its Derivatives and Method for the Synthesis Thereof” (priority 2005, published 2009).

What was measured:
[1] = Stability trial, 5 days at 53° C., degradation evaluated by HPCEC-UV; format: physicochemical
Description: The evaluation of the degradation was carried out by HPCEC-UV analysis using 0.5M (pH 4) ammonium formiate as an eluent, a flow of 1.2 ml/min, and a Supelcosil LC-SCX column (25 cm, 4.6 mm, 5 micron). The product thus obtained was subjected to stability trials according to a procedure similar to the one adopted for the Comparative Example above. […] Also in this case, the evaluation of the degradation was carried out by HPCEC-UV analysis using 0.5M ammonium formiate (pH 4) as an eluent, a flow of 1.2 ml/min, and a Supelcosil LC-SCX column (25 cm, 4.6 mm, 5 μm).

[2] = tested on: peripheral neuropathies caused by diabetes; settings: 500 mg twice a day for two weeks; cited from earlier work

SAMe salt with phytic acid [SAMe phytate complex]
SAMe ion ([1]; Lot 1, after 5 days at 53° C.): 23.2 % p/p | % Variation of SAMe ion ([1]; Lot 1, after 5 days at 53° C. vs initial): −7.9% | SAMe ion ([1]; Lot 1, immediately after preparation): 25.2 % p/p | SAMe ion ([1]; Lot 2, after 5 days at 53° C.): 23.3 % p/p | % Variation of SAMe ion ([1]; Lot 2, after 5 days at 53° C. vs initial): −7.2% | SAMe ion ([1]; Lot 2, immediately after preparation): 25.1 % p/p | SAMe ion ([1]; Lot 3, after 5 days at 53° C.): 23.2 % p/p | % Variation of SAMe ion ([1]; Lot 3, after 5 days at 53° C. vs initial): −8.3% | SAMe ion ([1]; Lot 3, immediately after preparation): 25.3 % p/p | SAMe ion ([1]; Mean of 3 lots, after 5 days at 53° C.): 23.2 % p/p | % Variation of SAMe ion ([1]; Mean of 3 lots, after 5 days at 53° C. vs initial): −7.8% | SAMe ion ([1]; Mean of 3 lots, immediately after preparation): 25.2 % p/p

O[C@H]1[C@H](O)[C@@H](O)[C@H](O)[C@@H](O)[C@H]1O [inositol]
therapeutic result [2]: considerable results

SAMe Phytate Salt [Example 1]
stability ([1]; 5 days at 53° C.): very stable
